# Source: US8354429B2, “Inhibitors of human immunodeficiency virus replication” (priority 2007, dated 2013)
# What was measured:
# Format in all cases: cell-based
# [1] = test system: HIV-1 2.12 virus with Ala124/Thr125 variant integrase (HXB2 integrase); test: C8166 HIV-1 luciferase assay (EC50), A124/T125 integrase variant virus; details: Human immunodeficiency virus 1, HXB2, C8166, read-out: EC50 (nM) A124/T125
# Excerpt: (§1) C8166 cells are derived from a human T-lymphotrophic virus type 1 immortalized but nonexpressing line of cord blood lymphocytes (NIH AIDS reagent 404) and are highly permissive to HIV-1 infection. The pGL3 Basic LTR/TAR plasmid is made by introducing the HIV-1 HxB2 LTR sequence from nucleotide −138 to +80 (Sca1-HindIII) upstream of the luciferase gene in the pGL3 Basic Vector (a promoterless luciferase expression vector from Promega catalogue #E1751) with the gene for blasticidine resistance cloned in. The reporter cells are made by electroporating C8166 cells with pGL3 Basic LTR/TAR and selecting positive clones with blasticidine. Clone C8166-LTRluc #A8-F5-G7 was selected by 3 consecutive rounds of limiting dilution under blasticidine selection. Cultures are maintained in complete media (consisting of: Roswell Park Memorial Institute medium (RPMI) 1640+10% FBS+10^−5 M β-mercaptoethanol+10 μg/mL gentamycin) with 5 μg/mL blasticidine, however, blasticidine selection is removed from the cells before performing the viral replication assay.
# (§2) Serial dilutions of HIV-1 inhibitor compounds are prepared in complete media from 10 mM DMSO stock solutions. Eleven serial dilutions of 2.5× are made at 8× desired final concentration in a 1 ml deep well titer plate (96 wells). The 12th well contains complete media with no inhibitor and serves as the positive control. All samples contain the same concentration of DMSO 0.1% DMSO). A 25 μL aliquot of inhibitor is added, to triplicate wells, of a 96 well tissue culture treated clear view black microtiter plate (Corning Costar catalogue #3904). The total volume per well is 200 μL of media containing cells and inhibitor. The last row is reserved for uninfected C8166 LTRluc cells to serve as the background blank control and the first row is media alone.
# (§3) C8166 LTRluc cells are counted and placed in a minimal volume of complete RPMI 1640 in a tissue culture flask (ex. 30×10^6 cells in 10 mL media/25 cm^2 flask). Cells are infected with HIV-1 or virus with variant integrase generated as described below at a […] (moi) of 0.005. Cells are incubated for 1.5 h at 37° C. on a rotating rack in a 5% CO2 incubator and re-suspended in complete RPMI to give a final concentration of 25,000-cells/175 μL. 175 μL of cell mix is added to wells of a 96 well microtiter plate containing 25 μL 8× inhibitors. 25,000 uninfected C8166-LTRluc cells/well in 200 μL complete RPMI are added to the last row for background control. Cells are incubated at 37° C. in 5% CO2 incubator for 3 days.
# (§4) 50 μL Steady Glo (luciferase substrate T1/2=5 hours Promega catalogue #E2520) is added to each well of the 96 well plate. The relative light units (RLU) of luciferase is determined using the LUMIstar Galaxy luminometer (BMG LabTechnologies). Plates are read from the bottom for 2 seconds per well with a gain of 240.
# (§5) The level of inhibition (% inhibition) of each well containing inhibitor is calculated as follows: […]
# (§6) The calculated % inhibition values are used to determine EC50, slope factor (n) and maximum inhibition (Imax) by the non-linear regression routine NLIN procedure of SAS using the following equation: […]
# (§7) The 2.12 virus with NL4.3 strain of HIV-1 integrase (SEQ ID NO: 1) is used for the Thr124/Thr125 variant integrase residues and HXB2 integrase is introduced into the 2.12 virus for the Ala124/Thr125 variant integrase residues. The remaining variants viruses are generated by site directed mutagenesis of NL4.3 integrase to introduce the Ala124/Ala125, Thr124/Ala125, Asn124/Thr125, or Asn124/Ala125 variants in the 2.12 virus. Molecular biology and generation of virus are performed in a similar manner to Doyon et al. J. Virol. 70(6):3763-9 (1996). Briefly, site directed mutagenesis is used to introduce silent mutations in the integrase gene of the 2.12 virus. […]
# [2] = test system: HIV-1 2.12 virus with Thr124/Thr125 variant integrase (NL4.3 integrase); test: C8166 HIV-1 luciferase assay (EC50), T124/T125 integrase variant virus; details: Human immunodeficiency virus 1, C8166, read-out: EC50 (nM) T124/T125
# Excerpt: as §1, §2, §3, §4, §5, §6, §7
# [3] = test system: HIV-1 2.12 virus with Thr124/Ala125 variant integrase; test: C8166 HIV-1 luciferase assay (EC50), T124/A125 integrase variant virus; details: Human immunodeficiency virus 1, C8166, read-out: EC50 (nM) T124/A125
# Excerpt: as §1, §2, §3, §4, §5, §6, §7
# [4] = test system: HIV-1 2.12 virus with Ala124/Ala125 variant integrase; test: C8166 HIV-1 luciferase assay (EC50), A124/A125 integrase variant virus; details: Human immunodeficiency virus 1, C8166, read-out: EC50 (nM) A124/A125
# Excerpt: as §1, §2, §3, §4, §5, §6, §7
Compound,EC50 [1] [nM],EC50 [2] [nM],EC50 [3] [nM],EC50 [4] [nM]
Cc1ccc(-c2c([C@H](OC(C)(C)C)C(=O)O)c(C)nc3ccccc23)cc1C [Compound 1008],11,59,49,55
Cc1nc2ccccc2c(-c2ccc(Cl)cc2F)c1[C@H](OC(C)(C)C)C(=O)O [Compound 1010],12,41,76,49
Cc1nc2ccccc2c(-c2ccc3c(c2)CCO3)c1[C@H](OC(C)(C)C)C(=O)O [Compound 1014],19,87,76,68
Cc1nc2ccccc2c(-c2ccc(CF)cc2F)c1[C@H](OC(C)(C)C)C(=O)O [Compound 1018],35,55,93,110
Cc1nc2ccccc2c(-c2ccc3c(c2)CCC3)c1[C@H](OC(C)(C)C)C(=O)O [Compound 1023],12,29,31,37
Cc1nc2ccccc2c(-c2ccc3c(c2)C(C)CCO3)c1[C@H](OC(C)(C)C)C(=O)O (stereo partly drawn) [Compound 1052],28,120,59,64
Cc1nc2ccccc2c(-c2ccc3ncsc3c2)c1[C@H](OC(C)(C)C)C(=O)O [Compound 1136],91,200,140,170
Cc1nc2ccccc2c(OC(C)C)c1C(C(=O)O)c1ccc2c3c(ccnc13)CCO2 (stereo not drawn) [Compound 2001],71,110,120,67
CCC(C)(C)Oc1c(C(C(=O)O)c2ccc3c4c(ccnc24)CCO3)c(C)nc2ccccc12 (stereo not drawn) [Compound 2002],9.9,19,24,13
